Source: paper PMC9872677, “Boronic Acid Transition State Inhibitors as Potent Inactivators of KPC and CTX-M β-Lactamases: Biochemical and Structural Analyses” (Antimicrobial Agents and Chemotherapy, 2023)
In brackets after ≈: the same amount, converted by molar mass. Like-named read-outs stand apart in the source and are kept apart here.

Columns and labels:
CTX-M-96 = target: CTX-M-96; parameters: method as in PMID 26228623; conditions: previously reported; cited from earlier work
KPC-2 β-lactamase [1] = target: T1, KPC-2 β-lactamase (Klebsiella pneumoniae, UniProt Q9F663); experiment: IC50 after 5-min preincubation, nitrocefin reporter substrate; format: biochemical; conditions: 100 μM nitrocefin
T1 construct: made in house; host or cells: E. coli BL21 Star
Experimental: (§1) Using nitrocefin as an indicator substrate and 5 min incubation before steady-state velocities were determined, 50% inhibitory concentrations (IC50s) in the nanomolar range for KPC-2 and CTX-M-96 β-lactamases were measured, and both inhibitors bound CTX-M-96 with greater affinity than KPC-2 (Table 1). The IC50 was approximatively 40-fold lower for CTX-M-96 than KPC-2 for both inhibitors. The IC50 of S02030 is 2 nM against CTX-M-96 and 80 nM against KPC-2 ([12]). […] The on rates (k2/K) for S02030 and MB_076 versus CTX-M-96 were 24,000 M^−1 s^−1 and 3,900 M^−1 s^−1, respectively, and those for KPC-2 were 12,000 M^−1 s^−1 and 1,200 M^−1 s^−1 respectively (Table 1). […] The k2/K values for both BATSIs against CTX-M-96 were lower than those of avibactam ([16]). […] Kinetic plots for CTX-M-96–S02030, CTX-M-96–MB_076, and KPC-2–MB_076 are shown in Fig. S1 in the supplemental material.
(§2) The inhibition by BATSIs is assumed to follow a reversible mechanism according to the following scheme: (1) E + I ↔ E:I ↔ E-I^*↔ E-I^** where E represents the enzyme, I the BATSI, E:I the Michaelis complex, E-I* the enzyme-inhibitor complex as the acylation transition state analog, and E-I** the deacylation transition state intermediate, according to previous models ([15]). The half-maximal inhibitory concentration (IC50) was measured after a 5-min preincubation of the enzyme and each BATSI at increasing concentrations, with 100 μM nitrocefin as the reporter substrate, as previously described ([12], [13]).

CTX-M-96 β-lactamase [2] = target: T2, CTX-M-96 β-lactamase (Escherichia coli, UniProt Q9EXV5, N92S); experiment: as above; format: biochemical; conditions: 100 μM nitrocefin
Experimental: as §1, §2

KPC-2 β-lactamase [3] = target: T1, KPC-2 β-lactamase; experiment: Off rate (koff) after preincubation with saturating BATSI; format: biochemical
Experimental: The koff value was determined by mixing KPC-2 or CTX-M-96 with 100 μM nitrocefin after preincubating 5 min with a saturating amount of each BATSI, and progress curves were fitted to a single exponential decay equation as previously described ([12][–][14]).

[4] = Solubility as DMSO stock solution; format: physicochemical; conditions: organic solvent or mixture
[5] = system: pan-drug-resistant KPC-producing K. pneumoniae clinical isolate; parameters: method as in our unpublished data; conditions: paired with cefepime; separate paper and previous results, ref our unpublished data; cited from earlier work
KPC-2 β-lactamase [6] = target: T1, KPC-2 β-lactamase; experiment: On rate (k2/K) from progress curves with nitrocefin; format: biochemical
Experimental: (§3) To determine the on rate (k2/K), progress curves were obtained by incubating KPC-2 or CTX-M-96 with increasing concentrations of BATSIs and 100 μM nitrocefin as the reporter substrate. Progress curves were fitted to equation 2 to obtain kobs values, by nonlinear least-squares fitting of the data, and k2/K was determined from equation 3. (2) A = vf * t + (v0 − vf) × (1 − e^−kobst)/kobserved + A0 (3) kobserved = k−2 + (k2/K) × ([I]/(1 + ([S]/Km nitrocefin))) In equation 2, A is absorbance at 482 nm, vf is final velocity, t is time, v0 is initial velocity, and A0 is initial absorbance at 482 nm. In equation 3, [I] is the concentration of BATSI and [S] is the concentration of nitrocefin. The data were plotted as kobs versus [BATSI], and the k2/K value was obtained by correcting the value for the slope of the line for the concentration and affinity of nitrocefin (Equation 4). (4) k2/Kcorrected = k2/Kobserved × (([S]/Km nitrocefin) + 1)

CTX-M-96 β-lactamase [7] = target: T2, CTX-M-96 β-lactamase; experiment: as above; format: biochemical
Experimental: as §3

CTX-M-96 β-lactamase [8] = target: T2, CTX-M-96 β-lactamase; experiment: Off rate (koff) after preincubation with saturating BATSI; format: biochemical
[9] = system: Escherichia coli DH10B carrying blaSHV, blaKPC-2, and blaKPC-3 variants; parameters: method as in PMID 26729496; conditions: previous studies; cited from earlier work
KPC-2 β-lactamase [10] = target: T1, KPC-2 β-lactamase; parameters: method as in PMID 26729496; conditions: off rate, published previously; cited from earlier work
KPC-2 β-lactamase [11] = target: T1, KPC-2 β-lactamase; parameters: method as in PMID 26729496; conditions: published previously; cited from earlier work

O=C(O)[C@H]1/C(=C/CO)O[C@@H]2CC(=O)N21 [clavulanic acid]
inactivation efficiency value (kinact/KI) (CTX-M-96): 45,000 M^−1 s^−1

Nc1nnc(SCC(=O)N[C@@H](Cn2cc(C(=O)O)nn2)B(O)O)s1 [MB_076]
IC50 (KPC-2 β-lactamase [1]): 135 ± 20 nM | IC50 (CTX-M-96 β-lactamase [2]): 4 ± 0.5 nM | Koff (KPC-2 β-lactamase [3]): 0.001 s⁻¹ | solubility [4]: 1000 mM (≈ 373 mg/mL) | restoration of cefepime activity [5]: restore cefepime activity | k2/K (KPC-2 β-lactamase [6]; on rate): 1,200 M^−1 s^−1 | kinact/KI (KPC-2 β-lactamase [6]; on rate): 1200 M⁻¹ s⁻¹ | k2/K (CTX-M-96 β-lactamase [7]): 3,900 M^−1 s^−1 | Koff (CTX-M-96 β-lactamase [8]): (0.62 ± 0.05) × 10^−3 s^−1

O=C(Cc1cccs1)N[C@@H](Cn1cc(C(=O)O)nn1)B(O)O [S02030]
restoration of susceptibility combined with cefepime [9]: restored susceptibility | IC50 (CTX-M-96 β-lactamase [2]): 2 ± 0.2 nM | solubility [4]: 250 mM (≈ 81 mg/mL) | Koff (KPC-2 β-lactamase [10]): (0.46 ± 0.02) × 10^−3 s^−1 | restoration of cefepime activity [5]: restore cefepime activity | k2/K fold higher compared to MB_076 (KPC-2 β-lactamase [6]): 10 fold | k2/K (CTX-M-96 β-lactamase [7]): 24,000 M^−1 s^−1 | Koff (CTX-M-96 β-lactamase [8]): (0.75 ± 0.03) × 10^−3 s^−1 | IC50 (KPC-2 β-lactamase [11]): 80 ± 2 nM
